The test system of experiment [1] is hot flashes. Particulars: menopausal women (survivors of breast cancer) suffering from hot flashes; versus only 20% with placebo; cited from earlier work.
In experiment [2] the test system is hot flashes. In words: Randomized double-blind placebo controlled clinical trial of duloxetine for hot flashes (Example 1). Particulars: Group 1: Duloxetine 60 mg QD + Placebo; eight to twelve weeks.
Method: Patients eligible for a clinical trial include women who are either 1) naturally menopausal; or 2) pre-menopausal but had undergone bilateral oophorectomy surgery within four weeks prior to the commencement of the study. All the women in the study experience a minimum of thirty five hot flashes per week. […] The women or men are divided into two groups for a randomized double-blind placebo controlled study.
The groups receive drug or placebo as illustrated below:
Group 1: Duloxetine (60 mg QD)+Placebo
For three weeks both groups are administered placebo only. For eight to twelve weeks thereafter, each group is administered drug or placebo. Data is collected (numbers/severity of hot flashes experienced) from each participant during and at the end of the test period.

On to `COc1ccc(C(CN(C)C)C2(O)CCCCC2)cc1` (centres unmarked) [venlafaxine], for which the “treated menopausal women reporting a greater than 50% decrease in hot flash frequency” value in experiment [1] is given as 45%.

Regarding `CNCCC(Oc1cccc2ccccc12)c1cccs1` (centres unmarked) [duloxetine, N-methyl-3-(1-naphthalenyloxy)-3-(2-thienyl)propanamine], the “incidence of hot flashes relative to the placebo groups (Groups 2 and 3)” value in experiment [2] is “decrease”.

The values above are taken from US20040152733A1, “Duloxetine for treatment of hot flashes” (priority 2004, published 2004).
